Laboratory results reported in ChEMBL document CHEMBL1857833, “Screening and optimization of specific chemical series against human African Trypanosomiasis (HAT)”.
Values after ≈ are worked out from the molar mass of the structure shown.

Tests used:
[1] = in vitro; settings: mouse, liver microsomes, t (1 / 2)
Description: DNDI: half life in mouse liver microsomes at a concentration of 1uM

[2] = system: Trypanosoma brucei; experiment: DNDI: Inhibition of Human African Trypanosomiasis, SBRI 427, in vitro; assay type: functional, organism-based; settings: Trypanosoma brucei, SBRI 427; read-out: IC50
[3] = mouse, microsomes, 1 µM
Description: DNDI: in vitro intrinsic clearance in mouse liver microsomes at a concentration of 1uM

[4] = DNDI: Cytotoxicity against L929 mouse fibroblasts, 72 hour.; assay type: toxicity, cell-based; settings: mouse, L929 mouse fibroblasts
[5] = DNDI: Cytotoxicity against L929 mouse fibroblasts, CYTO-SP, 24 hour; assay type: toxicity, cell-based; settings: mouse, L929 mouse fibroblasts

Row | half-life at 1 µM [1] [min] | IC50 [2] [µg/mL] | CLint in vitro [3] [µL/min/mg] | SMILES | IC50 at 72 h [4] [µg/mL] | IC50 at 24 h [5] [µg/mL]
1 | 75 | 0.37 (≈ 1.02 µM) | 11 | CCCCCC(C)NCc1coc(-c2ccc(OCCCC)c(F)c2)n1 (stereo not given) | 0.73 (≈ 2.01 µM) | –
2 | 2 | 0.93 (≈ 2.69 µM) | 367 | O/N=C(/NC1CCCCC1)c1cccnc1Oc1ccc(Cl)cc1 | > 10 | –
3 | 41 | 0.47 (≈ 1.14 µM) | 21 | CCCCCC(C)NCc1coc(-c2ccc(OCc3ccc(Cl)cc3)cc2)n1 (stereo not given) | 1.67 (≈ 4.04 µM) | –
4 | 19 | > 5 | 44 | CCCCc1ccc(-c2nc(CNCc3cccnc3)co2)cc1 | > 10 | –
5 | 2 | 4.15 (≈ 8.58 µM) | 344 | COc1ccccc1CNC(CCc1ccccc1)c1nc(-c2ccccc2)c(N2CCOCC2)o1 (stereo not given) | > 10 | –
6 | 3 | 1.05 (≈ 2.91 µM) | 255 | Cc1ccc(/C(=N/O)NC2CCCCC2)c(Oc2c(F)cccc2F)n1 | > 10 | –
7 | 79 | 1.37 (≈ 3.72 µM) | 11 | CC(C)Oc1ccc(-c2nc(CN[C@@H]3C[C@@H]4C[C@H]([C@H]3C)C4(C)C)co2)cc1 | 1.9 (≈ 5.16 µM) | –
8 | 63 | 1.14 (≈ 3.13 µM) | 14 | CCCCCC(C)NCc1coc(-c2cccc(Oc3ccccc3)c2)n1 (stereo not given) | 1.76 (≈ 4.83 µM) | –
9 | 232 | 0.22 (≈ 0.621 µM) | 4 | CCCCCC(C)NCc1coc(-c2ccc(C3CCCCC3)cc2)n1 (stereo not given) | 0.67 (≈ 1.89 µM) | –
10 | 313 | 0.34 (≈ 0.852 µM) | 3 | CCCCCC(C)NCc1coc(-c2ccc(Oc3ccc(Cl)cc3)cc2)n1 (stereo not given) | 2.07 (≈ 5.19 µM) | –
11 | 2 | > 5 | 348 | CCCCc1ccc(-c2nc(CN3CCOCC3)co2)cc1 | > 10 | –
12 | – | 3.56 (≈ 12.3 µM) | – | CCCCCC(C)NCc1coc(-c2ccccc2O)n1 (stereo not given) | 7.32 (≈ 25.4 µM) | 24 (≈ 83.2 µM)
13 | – | > 5 | – | CC1(C)[C@H]2CC[C@@H](CNCc3coc(-c4sccc4Cl)n3)[C@@H]1C2 | > 50 | > 50
14 | – | 1.76 (≈ 5.74 µM) | – | CCCCC[C@H](C)NCc1coc(-c2ccc(Cl)cc2)n1 | 7.01 (≈ 22.8 µM) | 37 (≈ 121 µM)
15 | – | 1.14 (≈ 3.54 µM) | – | CCCCCC(C)NCc1coc(-c2cccc3ccccc23)n1 (stereo not given) | 6.56 (≈ 20.3 µM) | 16 (≈ 49.6 µM)
16 | 19 | 1.06 (≈ 2.88 µM) | 45 | CC(C)Oc1ccc(-c2nc(CNC[C@@H]3CC[C@H]4C[C@@H]3C4(C)C)co2)cc1 | 1.36 (≈ 3.69 µM) | –

Row | half-life at 1 µM [1] [min] | IC50 [2] [µg/mL] | CLint in vitro [3] [µL/min/mg] | SMILES | IC50 at 72 h [4] [µg/mL] | IC50 at 24 h [5] [µg/mL]
17 | 20 | 0.74 (≈ 2.58 µM) | 42 | CCCCc1ccc(-c2nc(CNC(C)CC)co2)cc1 (stereo not given) | 2.75 (≈ 9.6 µM) | –
18 | 4 | 4.9 (≈ 12.5 µM) | 206 | CCC(C)C(NCc1ccco1)c1nc(-c2ccccc2)c(N2CCCCC2)o1 (stereo not given) | > 10 | –
19 | – | 1.37 (≈ 3.84 µM) | – | CCCOc1ccc(-c2nc(CNC3CC(C)CC(C)(C)C3)co2)cc1 (stereo not given) | < 3.13 | 15.9 (≈ 44.5 µM)
20 | – | 1.86 (≈ 6.4 µM) | – | Clc1ccc(-c2nc(CNC3CCCCC3)co2)cc1 | 6.85 (≈ 23.6 µM) | > 50
21 | 22 | 0.39 (≈ 0.994 µM) | 39 | CCCCCC(C)NCc1coc(-c2ccc(OCCc3ccccc3)cc2)n1 (stereo not given) | 0.72 (≈ 1.83 µM) | –
22 | – | 1.36 (≈ 4.14 µM) | – | CCCCCC(C)NCc1coc(-c2cc3ccccc3s2)n1 (stereo not given) | 3.46 (≈ 10.5 µM) | > 50
23 | 3 | 2.72 (≈ 6.81 µM) | 255 | CCOCCCNC(c1nc(-c2ccccc2)c(N2CCCCC2)o1)C(C)CC (stereo not given) | 4.44 (≈ 11.1 µM) | –
24 | 10 | 1.6 (≈ 5.06 µM) | 87 | CCCCCC(C)NCc1coc(-c2ccc(C)c(OC)c2)n1 (stereo not given) | 5.27 (≈ 16.7 µM) | –
25 | 267 | 0.42 (≈ 1.27 µM) | 3 | CC(C)(C)CNCc1coc(-c2ccc(OCC(C)(C)C)cc2)n1 | 1.35 (≈ 4.09 µM) | –
26 | 2 | 1.19 (≈ 3.86 µM) | 381 | O/N=C(\NC1CCCCC1)c1ccccc1Cc1ccccc1 | 4.57 (≈ 14.8 µM) | –
27 | – | 1.74 (≈ 5.64 µM) | – | CCCCCC(C)NCc1coc(-c2ccc(F)c(F)c2)n1 (stereo not given) | 6.34 (≈ 20.6 µM) | 37 (≈ 120 µM)
28 | – | > 5 | – | CCCCc1ccc(-c2nc(C)co2)cc1 | 42.1 (≈ 195 µM) | > 50
29 | – | 1.82 (≈ 6.27 µM) | – | CCCCCC(C)NCc1coc(-c2ccccc2F)n1 (stereo not given) | 3.59 (≈ 12.4 µM) | 13 (≈ 44.8 µM)
30 | – | 3.62 (≈ 13.3 µM) | – | CCCCCC(C)NCc1ccc(-c2ccccc2)o1 (stereo not given) | 7.14 (≈ 26.3 µM) | 32 (≈ 118 µM)
31 | – | 2.19 (≈ 9.21 µM) | – | CCOc1ccc(-c2nc(CCl)co2)cc1 | 25.9 (≈ 109 µM) | > 5
32 | – | 2.97 (≈ 9.63 µM) | – | CCCCCC(C)NCc1coc(-c2ccc(F)cc2F)n1 (stereo not given) | 12.4 (≈ 40.3 µM) | > 50
